According to the supplement of paper PMC6045584:
± gives the standard deviation of the averaged measurements.

Columns and labels:
Assay in all cases: surviving fraction relative to DMSO-only wells; higher = less growth inhibition
Conditions in all cases: exposure time: 5 days
CELECOXIB = compound: Cc1ccc(-c2cc(C(F)(F)F)nn2-c2ccc(S(N)(=O)=O)cc2)cc1 [CELECOXIB]
How it was run: (§1)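 Luminescence normalised to the median of DMSO-only wells defines surviving fraction, with viability read by CellTiter-Glo. Signal was recorded after 10 minutes at room temperature, once log-phase tumour cell lines seeded at 250–500 cells per well in 384-well plates had spent 24 hours settling and then five days under continuous exposure to inhibitors at 0.5, 1, 5, 10, 50, 100, 500 and 1000 nM.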

GEFITINIB = compound: COc1cc2ncnc(Nc3ccc(F)c(Cl)c3)c2cc1OCCCN1CCOCC1 [GEFITINIB]
How it was run: as §1

[1] = compound: CC(=O)NCC(=O)N1[C@@H]2CC[C@H]1c1ccc(Nc3ncc(C(F)(F)F)c(NC4CCC4)n3)cc12
How it was run: as §1

OSI-906 = compound: C[C@]1(O)C[C@@H](c2nc(-c3ccc4ccc(-c5ccccc5)nc4c3)c3c(N)nccn32)C1 [OSI-906]
How it was run: as §1

PACLITAXEL = compound: CC(=O)O[C@H]1C(=O)[C@@]2(C)[C@H]([C@H](OC(=O)c3ccccc3)[C@]3(O)C[C@H](OC(=O)[C@H](O)[C@@H](NC(=O)c4ccccc4)c4ccccc4)C(C)=C1C3(C)C)[C@]1(OC(C)=O)CO[C@@H]1C[C@@H]2O [PACLITAXEL]
How it was run: as §1

HCC1954 BREAST was tested, and the surviving fraction (CELECOXIB; 0.5 nM) was 1.05 ± 0.12, the surviving fraction (CELECOXIB; 1 nM) was 1.07 ± 0.076 and the surviving fraction (CELECOXIB; 5 nM) was 1.39 ± 0.077. It also gave a surviving fraction (CELECOXIB; 10 nM) of 1.27 ± 0.065, a surviving fraction (CELECOXIB; 50 nM) of 1.11 ± 0.033 and a surviving fraction (CELECOXIB; 100 nM) of 0.959 ± 0.038. The surviving fraction (CELECOXIB; 500 nM) was 1.08 ± 0.024, the surviving fraction (CELECOXIB; 1000 nM) was 0.859 ± 0.088 and the surviving fraction (GEFITINIB; 0.5 nM) was 1.25 ± 0.17. The surviving fraction (GEFITINIB; 1 nM) was 1.25 ± 0.25, the surviving fraction (GEFITINIB; 5 nM) was 1.01 ± 0.029 and the surviving fraction (GEFITINIB; 10 nM) was 1.2 ± 0.13. The surviving fraction (GEFITINIB; 50 nM) was 0.855 ± 0.011, the surviving fraction (GEFITINIB; 100 nM) was 0.702 ± 0.0081 and the surviving fraction (GEFITINIB; 500 nM) was 0.459 ± 0.064. For the same test system, the surviving fraction (GEFITINIB; 1000 nM) was 0.408 ± 0.016, the surviving fraction ([1]; 0.5 nM) was 0.891 ± 0.079 and the surviving fraction ([1]; 1 nM) was 0.784 ± 0.085. It also gave a surviving fraction ([1]; 5 nM) of 1.17 ± 0.054, a surviving fraction ([1]; 10 nM) of 0.986 ± 0.042 and a surviving fraction ([1]; 50 nM) of 0.828 ± 0.022. The surviving fraction ([1]; 100 nM) was 0.745 ± 0.14, the surviving fraction ([1]; 500 nM) was 1.07 ± 0.021 and the surviving fraction ([1]; 1000 nM) was 0.905 ± 0.11. The surviving fraction (OSI-906; 0.5 nM) was 0.33 ± 0.0085, the surviving fraction (OSI-906; 1 nM) was 0.37 ± 0.012 and the surviving fraction (OSI-906; 5 nM) was 0.384 ± 0.046. The surviving fraction (OSI-906; 10 nM) was 0.475 ± 0.025, the surviving fraction (OSI-906; 50 nM) was 0.457 ± 0.063 and the surviving fraction (OSI-906; 100 nM) was 0.384 ± 0.012. For the same test system, the surviving fraction (OSI-906; 500 nM) was 0.314 ± 0.04, the surviving fraction (OSI-906; 1000 nM) was 0.35 ± 0.023 and the surviving fraction (PACLITAXEL; 0.5 nM) was 0.6985 ± 0.00071. For the same test system, the surviving fraction (PACLITAXEL; 1 nM) was 0.569 ± 0.0021, the surviving fraction (PACLITAXEL; 5 nM) was 0.199 ± 0.0014 and the surviving fraction (PACLITAXEL; 10 nM) was 0.094 ± 0.0057. For the same test system, the surviving fraction (PACLITAXEL; 50 nM) was 0.0897 ± 0.0025, the surviving fraction (PACLITAXEL; 100 nM) was 0.071 ± 0.0028 and the surviving fraction (PACLITAXEL; 500 nM) was 0.0592 ± 0.012. For the same test system, the surviving fraction (PACLITAXEL; 1000 nM) was 0.0653 ± 0.015.
